From patent publication US12590099B2, “Inhibitors of histone deacetylase useful for the treatment or prevention of HIV infection” (Merck Sharp & Dohme LLC, priority 2018, dated 2026)

Tests used:
Format in all cases: biochemical
[1] = target: T1, Recombinant human HDAC3/SMRT heterodimer (Homo sapiens, UniProt O15379); assay: Human HDAC enzyme inhibitor Fluor-de-Lys assay, HDAC3/SMRT
T1 construct: FLAG (C); made in house

[2] = target: T2, Recombinant human HDAC1 (Homo sapiens, UniProt Q13547); assay: Human HDAC enzyme inhibitor Fluor-de-Lys assay, HDAC1
T2 construct: FLAG (C); made in house
T2 sequence (Q13547 whole entry): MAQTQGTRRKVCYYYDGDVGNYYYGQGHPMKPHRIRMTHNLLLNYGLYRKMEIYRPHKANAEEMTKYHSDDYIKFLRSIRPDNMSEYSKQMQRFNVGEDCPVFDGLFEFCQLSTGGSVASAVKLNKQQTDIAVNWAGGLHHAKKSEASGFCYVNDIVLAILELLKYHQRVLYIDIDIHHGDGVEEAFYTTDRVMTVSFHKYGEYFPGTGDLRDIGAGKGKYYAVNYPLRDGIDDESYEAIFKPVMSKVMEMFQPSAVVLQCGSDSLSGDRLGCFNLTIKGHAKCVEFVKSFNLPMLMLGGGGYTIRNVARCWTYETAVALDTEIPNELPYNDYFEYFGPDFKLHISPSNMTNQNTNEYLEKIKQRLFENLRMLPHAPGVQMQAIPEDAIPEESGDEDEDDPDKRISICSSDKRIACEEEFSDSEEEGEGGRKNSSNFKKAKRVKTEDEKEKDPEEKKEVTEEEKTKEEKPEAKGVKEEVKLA
Outline: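 Fluor-de-Lys format at room temperature (23° C.): compounds titrated 10-point, 1:3, preincubated with HDAC before substrate addition; HDAC1 run at 0.3 nM enzyme with 20 μM BML-KI104. Developer with excess HDAC inhibitor ends the reaction, and trypsin-liberated AMC fluorescence is the read-out.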

[3] = target: T3, Recombinant human HDAC8 (Homo sapiens, UniProt Q9BY41); assay: Human HDAC enzyme inhibitor Fluor-de-Lys assay, HDAC8
T3 construct: purchased Enzo Life Sciences BML-SE145-0100
T3 sequence (Q9BY41 1-377): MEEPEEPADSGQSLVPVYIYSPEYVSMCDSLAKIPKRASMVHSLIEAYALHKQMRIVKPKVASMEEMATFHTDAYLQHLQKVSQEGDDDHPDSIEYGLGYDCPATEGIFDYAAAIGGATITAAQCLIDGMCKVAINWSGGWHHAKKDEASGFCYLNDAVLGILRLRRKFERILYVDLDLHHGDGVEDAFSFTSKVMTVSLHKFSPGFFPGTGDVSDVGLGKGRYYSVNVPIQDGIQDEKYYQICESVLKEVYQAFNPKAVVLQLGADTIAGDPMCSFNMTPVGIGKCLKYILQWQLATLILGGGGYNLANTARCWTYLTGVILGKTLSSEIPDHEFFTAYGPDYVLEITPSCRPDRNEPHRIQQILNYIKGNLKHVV

[4] = target: T4, Recombinant human HDAC2 (Homo sapiens, UniProt Q92769); assay: Human HDAC enzyme inhibitor Fluor-de-Lys assay, HDAC2
T4 construct: Full length human HDAC2-FLAG was expressed in baculovirus infected Sf9 cells; FLAG (C); made in house; host or cells: Sf9 (baculovirus)
T4 sequence (Q92769 whole entry): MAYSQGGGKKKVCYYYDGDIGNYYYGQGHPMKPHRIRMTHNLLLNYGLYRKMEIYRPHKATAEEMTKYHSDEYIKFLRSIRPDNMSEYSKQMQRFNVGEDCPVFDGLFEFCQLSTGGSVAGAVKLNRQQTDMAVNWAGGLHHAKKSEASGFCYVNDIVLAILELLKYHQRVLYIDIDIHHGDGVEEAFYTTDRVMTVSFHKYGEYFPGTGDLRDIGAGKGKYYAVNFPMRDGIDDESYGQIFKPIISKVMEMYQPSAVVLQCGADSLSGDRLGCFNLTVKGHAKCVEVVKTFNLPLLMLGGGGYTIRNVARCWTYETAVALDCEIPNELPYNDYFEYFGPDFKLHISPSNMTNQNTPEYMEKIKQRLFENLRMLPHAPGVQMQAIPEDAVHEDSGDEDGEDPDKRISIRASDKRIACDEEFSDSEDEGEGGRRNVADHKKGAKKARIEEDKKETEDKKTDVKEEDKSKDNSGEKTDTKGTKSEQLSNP
Outline: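 Fluor-de-Lys format at room temperature (23° C.): compounds titrated 10-point, 1:3, preincubated with HDAC before substrate addition. Developer with excess HDAC inhibitor ends the reaction, and trypsin-liberated AMC fluorescence is the read-out.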

[5] = target: T5, HDAC6 (Homo sapiens, UniProt Q9UBN7); assay: Human HDAC enzyme inhibitor Fluor-de-Lys assay, HDAC6
T5 sequence (Q9UBN7 1-1215): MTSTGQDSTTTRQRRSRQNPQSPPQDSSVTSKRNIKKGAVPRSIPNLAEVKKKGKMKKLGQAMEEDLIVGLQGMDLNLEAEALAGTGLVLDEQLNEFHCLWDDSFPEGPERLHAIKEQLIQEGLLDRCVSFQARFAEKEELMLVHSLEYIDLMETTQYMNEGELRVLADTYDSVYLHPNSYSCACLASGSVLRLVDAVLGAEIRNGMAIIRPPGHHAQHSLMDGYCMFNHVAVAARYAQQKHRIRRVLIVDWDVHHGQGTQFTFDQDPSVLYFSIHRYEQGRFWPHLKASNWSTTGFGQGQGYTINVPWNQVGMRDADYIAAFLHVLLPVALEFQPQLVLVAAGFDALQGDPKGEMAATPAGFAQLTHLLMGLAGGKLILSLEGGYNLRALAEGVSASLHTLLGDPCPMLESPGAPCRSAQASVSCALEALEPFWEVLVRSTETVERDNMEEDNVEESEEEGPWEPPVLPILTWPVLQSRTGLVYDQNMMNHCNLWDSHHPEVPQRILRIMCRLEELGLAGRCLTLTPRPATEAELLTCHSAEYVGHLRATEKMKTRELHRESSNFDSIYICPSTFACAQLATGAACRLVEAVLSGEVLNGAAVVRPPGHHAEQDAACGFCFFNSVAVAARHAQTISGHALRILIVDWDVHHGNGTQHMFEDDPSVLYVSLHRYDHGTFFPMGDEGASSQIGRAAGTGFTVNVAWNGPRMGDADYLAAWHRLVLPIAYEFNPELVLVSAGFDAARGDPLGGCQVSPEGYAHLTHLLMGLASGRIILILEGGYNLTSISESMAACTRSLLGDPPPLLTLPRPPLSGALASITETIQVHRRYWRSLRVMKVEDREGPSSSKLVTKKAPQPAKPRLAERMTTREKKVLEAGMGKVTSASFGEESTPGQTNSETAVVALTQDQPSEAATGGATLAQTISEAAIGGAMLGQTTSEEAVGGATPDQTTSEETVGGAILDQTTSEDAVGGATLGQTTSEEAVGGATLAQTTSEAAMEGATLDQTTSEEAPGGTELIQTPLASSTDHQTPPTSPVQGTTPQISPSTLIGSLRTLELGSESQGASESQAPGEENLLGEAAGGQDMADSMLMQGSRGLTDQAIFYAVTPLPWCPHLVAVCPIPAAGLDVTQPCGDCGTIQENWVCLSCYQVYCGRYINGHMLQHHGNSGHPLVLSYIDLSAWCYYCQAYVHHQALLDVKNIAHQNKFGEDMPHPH

T1 sequence (O15379 whole entry): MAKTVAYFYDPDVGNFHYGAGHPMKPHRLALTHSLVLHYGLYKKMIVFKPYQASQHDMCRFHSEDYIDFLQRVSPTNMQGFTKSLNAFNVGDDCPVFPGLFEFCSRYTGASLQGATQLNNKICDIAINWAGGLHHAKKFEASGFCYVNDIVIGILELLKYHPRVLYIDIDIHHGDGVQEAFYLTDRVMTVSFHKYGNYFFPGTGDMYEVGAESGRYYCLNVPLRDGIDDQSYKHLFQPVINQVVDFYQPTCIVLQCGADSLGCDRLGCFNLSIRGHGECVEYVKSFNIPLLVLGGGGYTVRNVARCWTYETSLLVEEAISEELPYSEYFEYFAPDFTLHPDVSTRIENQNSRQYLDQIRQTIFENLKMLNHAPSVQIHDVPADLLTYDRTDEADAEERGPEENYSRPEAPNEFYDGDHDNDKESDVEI
T1 sequence (Q9Y618 1-899 partner limits assumed): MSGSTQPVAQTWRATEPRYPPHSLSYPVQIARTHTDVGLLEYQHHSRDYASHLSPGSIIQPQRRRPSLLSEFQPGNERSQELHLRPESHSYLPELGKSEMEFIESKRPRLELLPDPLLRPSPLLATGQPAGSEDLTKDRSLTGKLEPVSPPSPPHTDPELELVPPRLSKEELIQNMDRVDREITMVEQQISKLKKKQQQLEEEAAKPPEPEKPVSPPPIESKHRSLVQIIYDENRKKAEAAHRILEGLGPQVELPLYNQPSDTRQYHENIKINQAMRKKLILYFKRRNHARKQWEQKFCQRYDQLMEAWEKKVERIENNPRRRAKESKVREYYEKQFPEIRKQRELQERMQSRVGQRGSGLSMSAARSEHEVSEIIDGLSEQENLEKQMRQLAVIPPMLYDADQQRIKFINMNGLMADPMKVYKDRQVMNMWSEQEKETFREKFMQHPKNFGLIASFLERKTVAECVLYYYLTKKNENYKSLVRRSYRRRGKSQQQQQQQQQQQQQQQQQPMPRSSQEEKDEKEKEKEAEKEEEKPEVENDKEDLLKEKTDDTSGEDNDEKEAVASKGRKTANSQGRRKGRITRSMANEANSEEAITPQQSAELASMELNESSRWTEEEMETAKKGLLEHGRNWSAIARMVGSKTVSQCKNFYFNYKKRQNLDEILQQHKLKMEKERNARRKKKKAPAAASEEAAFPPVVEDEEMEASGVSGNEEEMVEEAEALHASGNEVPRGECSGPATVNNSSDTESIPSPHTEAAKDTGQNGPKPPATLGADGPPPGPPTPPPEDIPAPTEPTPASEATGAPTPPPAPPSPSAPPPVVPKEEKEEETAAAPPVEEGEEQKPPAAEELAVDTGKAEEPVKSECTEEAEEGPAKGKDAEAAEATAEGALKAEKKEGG

How did the IC50 [1] turn out when `CCC(=O)CCCCC[C@H](NC(=O)C1CC2(C1)CN(C)C2)c1ncc(-c2ccc3nn(C)cc3c2)[nH]1` [Compound 147] was run?
Its IC50 is less than 0.0015 µM.

What about the IC50 [2] of the same compound?
Its IC50 is 0.00229 µM.

And the IC50 [3]?
Its IC50 is 2.77 µM.

And the IC50 [4]?
Its IC50 is 0.0103 µM.

And the IC50 [5]?
Its IC50 is 3.66 µM.

What does the source list for `CCC(=O)CCCCC[C@H](NC(=O)[C@H]1CC12CCN(C)CC2)c1ncc(-c2ccc3nc(CC)sc3c2)[nH]1` [Compound 149]?
IC50 [1]: 0.00062 µM; IC50 [2]: 0.0005 µM; IC50 [3]: 2.72 µM; IC50 [4]: 0.0039 µM; IC50 [5]: 3.66 µM

For `CCC(=O)CCCCC[C@H](NC(=O)[C@H]1CC12CCN(CC)CC2)c1ncc(-c2ccc3c(=O)n(C4CC4)ccc3c2)[nH]1` [Compound 150], which IC50 [1] is on record?
The IC50 was 0.00025 µM.

And the IC50 [2]?
The IC50 was 0.00019 µM.

And the IC50 [3]?
The IC50 was 4.37 µM.

What about the IC50 [4] of the same compound?
The IC50 was 0.0014 µM.

And the IC50 [5]?
Its IC50 is 7.05 µM.

For `CCC(=O)CCCCC[C@H](NC(=O)[C@H]1CC12CCN(CC)CC2)c1ncc(-c2ccc3c(=O)n(C4CC4)ccc3c2)o1` [Compound 153], which IC50 [1] is on record?
Its IC50 is 0.00614 µM.

What about the IC50 [2] of the same compound?
The IC50 was 0.00544 µM.

What about the IC50 [3] of the same compound?
Its IC50 is greater than 15 µM.

What about the IC50 [4] of the same compound?
Its IC50 is 0.0135 µM.

What about the IC50 [5] of the same compound?
Its IC50 is 10.4 µM.

Which IC50 [1] does the source give for `CCC(=O)CCCCC[C@H](NC(=O)C1=NOC2(CCN(C)CC2)C1)c1ncc(-c2ccc3nn(C)cc3c2)[nH]1` [Compound 154] here?
The IC50 was 0.00276 µM.

And the IC50 [2]?
Its IC50 is 0.00603 µM.

And the IC50 [3]?
Its IC50 is 12.1 µM.

And the IC50 [4]?
The IC50 was 0.0195 µM.

And the IC50 [5]?
Its IC50 is 18.1 µM.

Which results are given for `CCC(=O)CCCCC[C@H](NC(=O)CN1CCC2(CC1)CC2)c1ncc(-c2ccc3nn(C)cc3c2)[nH]1` [Compound 155]?
IC50 [1]: 0.00205 µM; IC50 [2]: 0.00691 µM; IC50 [3]: 8.13 µM; IC50 [4]: 0.0184 µM; IC50 [5]: 8.94 µM

Which IC50 [1] does the source give for `CCC(=O)CCCCC[C@H](NC(=O)C1CCC2(CC1)CN(C)C2)c1ncc(-c2ccc3nn(C)cc3c2)[nH]1` [Compound 156] here?
Its IC50 is 0.00198 µM.

And the IC50 [2]?
Its IC50 is 0.00503 µM.

And the IC50 [3]?
Its IC50 is 5.83 µM.

What about the IC50 [4] of the same compound?
The IC50 was 0.0151 µM.

What about the IC50 [5] of the same compound?
The IC50 was 7.53 µM.

Which results are given for `CCC(=O)CCCCC[C@H](NC(=O)C1(CC(C)C)CC2(CN(C)C2)C1)c1ncc(-c2ccc3nc(C)ccc3c2)[nH]1` [Compound 157]?
IC50 [1]: 0.00401 µM; IC50 [2]: 0.00539 µM; IC50 [3]: 4.18 µM; IC50 [4]: 0.0119 µM; IC50 [5]: 8.53 µM

Which results are given for `CCC(=O)CCCCC[C@H](NC(=O)[C@H]1CC12CCN(CC)CC2)c1ncc(-c2ccc3c(cnn3C3CC3)c2)[nH]1` [Compound 159]?
IC50 [1]: 0.00049 µM; IC50 [2]: 0.00044 µM; IC50 [3]: 4.62 µM; IC50 [4]: 0.0024 µM; IC50 [5]: 2.95 µM

Which IC50 [1] does the source give for `CCC(=O)CCCCC[C@H](NC(=O)[C@H]1CC12CCN(C)CC2)c1ncc(-c2ccc3nc(C4CC4)oc3c2)[nH]1` [Compound 160] here?
Its IC50 is 0.00275 µM.

What about the IC50 [2] of the same compound?
Its IC50 is 0.00189 µM.

What about the IC50 [3] of the same compound?
Its IC50 is 16.8 µM.

And the IC50 [4]?
Its IC50 is 0.0121 µM.

And the IC50 [5]?
The IC50 was 10.4 µM.

For `CCC(=O)CCCCC[C@H](NC(=O)[C@H]1CC12CCN(CC)CC2)c1ncc(-c2ccc(-c3cnc(C4CC4)nc3)cc2)o1` [Compound 161], which IC50 [1] is on record?
Its IC50 is 0.033 µM.

What about the IC50 [2] of the same compound?
Its IC50 is 0.0545 µM.

And the IC50 [3]?
Its IC50 is 26.8 µM.

And the IC50 [4]?
The IC50 was 0.163 µM.

What about the IC50 [5] of the same compound?
Its IC50 is 11.7 µM.

How did the IC50 [1] turn out when `CCC(=O)CCCCC[C@H](NC(=O)[C@H]1CC12CCN(CC)CC2)c1ncc(-c2ccc3c(=O)n(CC)ccc3c2)o1` [Compound 162] was run?
Its IC50 is 0.00284 µM.

What about the IC50 [2] of the same compound?
The IC50 was 0.00324 µM.

What about the IC50 [3] of the same compound?
The IC50 was greater than 45 µM.

What about the IC50 [4] of the same compound?
Its IC50 is 0.0095 µM.

What about the IC50 [5] of the same compound?
The IC50 was 6.53 µM.

How did the IC50 [1] turn out when `CCN1CCC2(CC1)C[C@@H]2C(=O)N[C@@H](CCCCCC(=O)CC1CC1)c1ncc(-c2cc3ccc(C)nc3cc2OC)[nH]1` [Compound 165] was run?
The IC50 was 0.00214 µM.

And the IC50 [2]?
Its IC50 is 0.00118 µM.

And the IC50 [3]?
Its IC50 is 14.7 µM.

And the IC50 [4]?
Its IC50 is 0.008 µM.

What about the IC50 [5] of the same compound?
The IC50 was 11.9 µM.
